According to ChEMBL document CHEMBL1201862, “PubChem BioAssay data set” (2004):
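Results reflect a 48-hour exposure of cells in 96-well plates to compound at five concentrations. The concentration for 50% growth inhibition is given as GI50.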 Activity calls are given as the source filed them. Rule as the data show it: active = GI50 up to about 1.1 µM and inactive = higher.

Columns and labels:
Experiment in all cases: DTP human tumour cell line panel, 48 h
SF-295 = system: SF-295
SK-OV-3 = system: SK-OV-3
HOP-92 = system: HOP-92
SK-MEL-5 = system: SK-MEL-5
A549 = system: A549
U-251 = system: U-251
MOLT-4 = system: MOLT-4
SNB-78 = system: SNB-78
XF498 = system: XF498
CAKI-1 = system: CAKI-1
NCI-H226 = system: NCI-H226
UACC-257 = system: UACC-257
HL-60 = system: HL-60
SF-268 = system: SF-268
SR = system: SR
HCC 2998 = system: HCC 2998
OVCAR-5 = system: OVCAR-5
CCRF-CEM = system: CCRF-CEM
SN12C = system: SN12C
SNB-19 = system: SNB-19
KM12 = system: KM12
OVCAR-3 = system: OVCAR-3
IGROV-1 = system: IGROV-1
DLD-1 = system: DLD-1
LOX IMVI = system: LOX IMVI
SF-539 = system: SF-539
UO-31 = system: UO-31
A498 = system: A498
HCT-116 = system: HCT-116
RXF 631 = system: RXF 631
DMS-114 = system: DMS-114
NCI-H460 = system: NCI-H460
HOP-62 = system: HOP-62
786-0 = system: 786-0
NCI-H522 = system: NCI-H522
RPMI-8226 = system: RPMI-8226
DMS-273 = system: DMS-273
HCT-15 = system: HCT-15
OVCAR-8 = system: OVCAR-8
OVCAR-4 = system: OVCAR-4
NCI-H23 = system: NCI-H23
KM-20L2 = system: KM-20L2
M19-MEL = system: M19-MEL
SW-620 = system: SW-620
RXF 393 = system: RXF 393
SK-MEL-2 = system: SK-MEL-2
UACC-62 = system: UACC-62
Malme-3M = system: Malme-3M
M14 = system: M14
TK-10 = system: TK-10
SNB-75 = system: SNB-75
COLO 205 = system: COLO 205
HT-29 = system: HT-29
HOP-18 = system: HOP-18
EKVX = system: EKVX
LXFL 529 = system: LXFL 529
K562 = system: K562
T47D = system: T47D
Hs-578T = system: Hs-578T
MDA-MB-231 = system: MDA-MB-231
MDA-MB-435 = system: MDA-MB-435
MDA-N = system: MDA-N
ACHN = system: ACHN
PC-3 = system: PC-3
MCF7 = system: MCF7
DU-145 = system: DU-145
BT-549 = system: BT-549
SK-MEL-28 = system: SK-MEL-28

O=C(O)c1ccc([I+]c2ccccc2)cc1
GI50 (SF-295): > 100 µM (inactive)
GI50 (SK-OV-3): > 100 µM (inactive)
GI50 (HOP-92): > 100 µM (inactive)
GI50 (SK-MEL-5): > 100 µM (inactive)
GI50 (A549): > 100 µM (inactive)
GI50 (U-251): > 100 µM (inactive)
GI50 (MOLT-4): > 100 µM (inactive)
GI50 (SNB-78): > 100 µM (inactive)
GI50 (XF498): > 100 µM (inactive)
GI50 (CAKI-1): > 100 µM (inactive)
GI50 (NCI-H226): > 100 µM (inactive)
GI50 (UACC-257): > 100 µM (inactive)
GI50 (HL-60): > 100 µM (inactive)
GI50 (SF-268): > 100 µM (inactive)
GI50 (SR): > 100 µM (inactive)
GI50 (HCC 2998): > 100 µM (inactive)
GI50 (OVCAR-5): > 100 µM (inactive)
GI50 (CCRF-CEM): > 100 µM (inactive)
GI50 (SN12C): > 100 µM (inactive)
GI50 (SNB-19): > 100 µM (inactive)
GI50 (KM12): > 100 µM (inactive)
GI50 (OVCAR-3): > 100 µM (inactive)
GI50 (IGROV-1): > 100 µM (inactive)
GI50 (DLD-1): > 100 µM (inactive)
GI50 (LOX IMVI): > 100 µM (inactive)
GI50 (SF-539): > 100 µM (inactive)
GI50 (UO-31): > 100 µM (inactive)
GI50 (A498): > 100 µM (inactive)
GI50 (HCT-116): > 100 µM (inactive)
GI50 (RXF 631): > 100 µM (inactive)
GI50 (DMS-114): > 100 µM (inactive)
GI50 (NCI-H460): > 100 µM (inactive)
GI50 (HOP-62): > 100 µM (inactive)
GI50 (786-0): > 100 µM (inactive)
GI50 (NCI-H522): > 100 µM (inactive)
GI50 (RPMI-8226): > 100 µM (inactive)
GI50 (DMS-273): > 100 µM (inactive)
GI50 (HCT-15): > 100 µM
GI50 (OVCAR-8): > 100 µM (inactive)
GI50 (OVCAR-4): > 100 µM (inactive)
GI50 (NCI-H23): > 100 µM (inactive)
GI50 (KM-20L2): > 100 µM (inactive)
GI50 (M19-MEL): > 100 µM (inactive)
GI50 (SW-620): > 100 µM (inactive)
GI50 (RXF 393): > 100 µM (inactive)
GI50 (SK-MEL-2): > 100 µM (inactive)
GI50 (UACC-62): > 100 µM (inactive)
GI50 (Malme-3M): > 100 µM (inactive)
GI50 (M14): > 100 µM (inactive)
GI50 (TK-10): > 100 µM (inactive)
GI50 (SNB-75): > 100 µM (inactive)
GI50 (COLO 205): > 100 µM (inactive)
GI50 (HT-29): > 100 µM (inactive)
GI50 (HOP-18): > 100 µM (inactive)
GI50 (EKVX): > 100 µM (inactive)
GI50 (LXFL 529): > 100 µM (inactive)
GI50 (K562): > 100 µM (inactive)

C[C@]12CCNC(=O)C=C1CC[C@@H]1C2CC[C@@]2(C)C1CC[C@@H]2OC(=O)COc1ccc(N(CCCl)CCCl)cc1 (stereo partly drawn)
GI50 (SF-295): 8.09 µM (inactive)
GI50 (SK-OV-3): 6.27 µM (inactive)
GI50 (HOP-92): 7.73 µM (inactive)
GI50 (SK-MEL-5): 7.33 µM (inactive)
GI50 (A549): 5.37 µM (inactive)
GI50 (U-251): 2.03 µM (inactive)
GI50 (MOLT-4): 0.145 µM (active)
GI50 (SNB-78): 28.6 µM (inactive)
GI50 (XF498): 1.35 µM (inactive)
GI50 (CAKI-1): 4.15 µM (inactive)
GI50 (NCI-H226): 13.1 µM (inactive)
GI50 (UACC-257): 13.8 µM (inactive)
GI50 (T47D): 1.88 µM (inactive)
GI50 (HL-60): 1.32 µM (inactive)
GI50 (SF-268): 2.74 µM (inactive)
GI50 (SR): 0.138 µM (active)
GI50 (HCC 2998): 3.84 µM (inactive)
GI50 (OVCAR-5): 12.6 µM (inactive)
GI50 (CCRF-CEM): 0.326 µM (active)
GI50 (SN12C): 4.65 µM (inactive)
GI50 (SNB-19): 10.8 µM (inactive)
GI50 (Hs-578T): 17.7 µM (inactive)
GI50 (KM12): 8.28 µM (inactive)
GI50 (MDA-MB-231): 17.5 µM (inactive)
GI50 (OVCAR-3): 3.05 µM (inactive)
GI50 (MDA-MB-435): 21.8 µM (inactive)
GI50 (IGROV-1): 13.1 µM (inactive)
GI50 (DLD-1): 4.56 µM (inactive)
GI50 (LOX IMVI): 3.21 µM (inactive)
GI50 (SF-539): 2.07 µM (inactive)
GI50 (MDA-N): 13.3 µM (inactive)
GI50 (UO-31): 4.76 µM (inactive)
GI50 (A498): 18.6 µM (inactive)
GI50 (HCT-116): 3.73 µM (inactive)
GI50 (RXF 631): 4.71 µM (inactive)
GI50 (ACHN): 0.982 µM (active)
GI50 (NCI-H460): 0.308 µM (active)
GI50 (HOP-62): 2.84 µM (inactive)
GI50 (786-0): 0.964 µM (active)
GI50 (PC-3): > 10 µM (inactive)
GI50 (MCF7): 1.29 µM (inactive)
GI50 (DU-145): 4.54 µM (inactive)
GI50 (BT-549): 17.5 µM (inactive)
GI50 (NCI-H522): 1.65 µM (inactive)
GI50 (RPMI-8226): 4.65 µM (inactive)
GI50 (DMS-273): 0.638 µM (active)
GI50 (HCT-15): 2.68 µM
GI50 (OVCAR-8): 4.09 µM (inactive)
GI50 (OVCAR-4): 6.11 µM (inactive)
GI50 (NCI-H23): 2.99 µM (inactive)
GI50 (KM-20L2): 14.4 µM (inactive)
GI50 (M19-MEL): 4.91 µM (inactive)
GI50 (SW-620): 2.23 µM (inactive)
GI50 (SK-MEL-28): 17 µM (inactive)
GI50 (RXF 393): 4.37 µM (inactive)
GI50 (SK-MEL-2): 18.5 µM (inactive)
GI50 (UACC-62): 1.28 µM (inactive)
GI50 (Malme-3M): 8.45 µM (inactive)
GI50 (M14): 6.35 µM (inactive)
GI50 (TK-10): 17.6 µM (inactive)
GI50 (SNB-75): 8.75 µM (inactive)
GI50 (COLO 205): 9.08 µM (inactive)
GI50 (HT-29): 8.59 µM (inactive)
GI50 (HOP-18): 18.8 µM (inactive)
GI50 (EKVX): 16.1 µM (inactive)
GI50 (LXFL 529): 7.57 µM (inactive)
GI50 (K562): 2.91 µM (inactive)

CC(C)(C)[Si](C)(C)O/N=C\c1ccc(O[Si](C)(C)C(C)(C)C)cc1
GI50 (SF-295): 52.5 µM (inactive)
GI50 (SK-OV-3): > 100 µM (inactive)
GI50 (SK-MEL-5): > 100 µM (inactive)
GI50 (A549): 92.7 µM (inactive)
GI50 (U-251): 25.2 µM (inactive)
GI50 (MOLT-4): 41.3 µM (inactive)
GI50 (SNB-78): > 100 µM (inactive)
GI50 (XF498): 31.8 µM (inactive)
GI50 (CAKI-1): > 100 µM (inactive)
GI50 (UACC-257): > 100 µM (inactive)
GI50 (HL-60): 36.5 µM (inactive)
GI50 (SF-268): 49.5 µM (inactive)
GI50 (HCC 2998): 36.8 µM (inactive)
GI50 (OVCAR-5): 44.1 µM (inactive)
GI50 (CCRF-CEM): 49.8 µM (inactive)
GI50 (SN12C): 61.2 µM (inactive)
GI50 (SNB-19): 72.4 µM (inactive)
GI50 (KM12): > 100 µM (inactive)
GI50 (OVCAR-3): 20.2 µM (inactive)
GI50 (IGROV-1): > 100 µM (inactive)
GI50 (DLD-1): > 100 µM (inactive)
GI50 (LOX IMVI): 21.3 µM (inactive)
GI50 (SF-539): 42.5 µM (inactive)
GI50 (UO-31): 50.9 µM (inactive)
GI50 (A498): 52.4 µM (inactive)
GI50 (HCT-116): 24.2 µM (inactive)
GI50 (RXF 631): 24 µM (inactive)
GI50 (DMS-114): 25.9 µM (inactive)
GI50 (ACHN): 37.6 µM (inactive)
GI50 (NCI-H460): > 100 µM (inactive)
GI50 (HOP-62): > 100 µM (inactive)
GI50 (786-0): 38.5 µM (inactive)
GI50 (RPMI-8226): 57.5 µM (inactive)
GI50 (DMS-273): > 100 µM (inactive)
GI50 (HCT-15): 33.3 µM
GI50 (OVCAR-8): 62.8 µM (inactive)
GI50 (OVCAR-4): > 100 µM (inactive)
GI50 (NCI-H23): > 100 µM (inactive)
GI50 (KM-20L2): 44.7 µM (inactive)
GI50 (M19-MEL): 41.3 µM (inactive)
GI50 (SW-620): > 100 µM (inactive)
GI50 (RXF 393): 24.5 µM (inactive)
GI50 (SK-MEL-2): > 100 µM (inactive)
GI50 (UACC-62): > 100 µM (inactive)
GI50 (Malme-3M): > 100 µM (inactive)
GI50 (M14): 62.1 µM (inactive)
GI50 (TK-10): > 100 µM (inactive)
GI50 (SNB-75): 72.1 µM (inactive)
GI50 (COLO 205): > 100 µM (inactive)
GI50 (HT-29): 64.4 µM (inactive)
GI50 (HOP-18): > 100 µM (inactive)
GI50 (EKVX): > 100 µM (inactive)
GI50 (LXFL 529): 84.9 µM (inactive)
GI50 (K562): 45.9 µM (inactive)
